Reference: patent publication US9809623B2, “α4β7 peptide monomer and dimer antagonists” (Protagonist Therapeutics, Inc., priority 2014, dated 2017)
Numbered stars: 1 amine (or outer) side, 2 acyl side, 3 side chain; on linkers, the order of the positions; unused ones are H or OH. Bridge positions count the residues as written; N and C are the ends. Square brackets hold non-standard residues; d marks the D form. Peptide text beside a SMILES is read from it. I, II: the chains in the order shown. ξ: configuration not given here. Phe(4-tBu) = CC(C)(C)c1ccc(C[C@H](N)C(=O)O)cc1; Diglycolyl = O=C(COCC(=O)[*:2])[*:1]; NMeR = CN[C@@H](CCCNC(=N)N)C(=O)O; β3hE = N[C@@H](CCC(=O)O)CC(=O)O; Thr(3ξ) = CC(O)[C@H](N)C(=O)O; Pen = CC(C)(S)[C@H](N)C(=O)O

Tests used:
α4β1 = α4β1 (Homo sapiens, UniProt P05556+P13612); experiment: PBMC Memory T Cell Adhesion Assay, adhesion to VCAM-1; type: cell-based; conditions: memory T cells isolated from human PBMC donors; read-out: IC50 (nM), memory T cells, Integrin α4β1, Ligand VCAM-1
Experimental: Fresh CD4+/CD45RO+ memory T cells were isolated from human peripheral blood mononuclear cell (PBMC) donors by Aragen Bioscience Inc. (Morgan Hill, Calif.). The assay plate was prepared using IgG Fc capture antibody (donkey anti human) immobilized at 500 ng/well in 50 mM sodium bicarbonate buffer, pH 9.5, ON, 4C onto a Greiner Fluotrac plate (100 ul per well). The plate was rinsed two time with Blocking Buffer (25 mM Tris HCl, pH7.5, 150 mM NaCl, 1.5% BSA, 0.05% Tween), and blocked with Blocking Buffer for 2 hours at 37 C or 5 hours at RT using 200 ul per well. The Blocking Buffer was removed and either MAdCAM-1 or VCAM-1 at 400 ng/well in Blocking Buffer was added and the plate incubated overnight at 4C (100 ul per well). The plate was washed two times with Blocking Buffer, and rinsed once with 200 ul Binding Media (DMEM phenol red free, 10 mM HEPES, 1×Na pyruvate, 1× Glutamine, and supplemented with 1 mM MnCl2 prior to use). To prepare cells, approximately 25 million CD4+/CD45RO+ memory T cells were counted by trypan blue exclusion using a haemocytometer to determine viability and cell count. […] Fluorescence intensity was measured using a Molecular Devices Gemini EM Fluorescent Plate Reader (Ex 485/Em530, Bottom Read, Reading Sensitivity=20). IC50 curves are generated using Graph Pad Prism and the curves analyzed using analyzed using a non-linear regression (four parameters) algorithm. […]

α4β7 integrin = α4β7 integrin (Homo sapiens, UniProt P13612+P26010); experiment: Schild analysis, MAdCAM binding to immobilized α4β7 integrin by ELISA; conditions: global-fit Schild analysis
Experimental: Schild analysis was used to determine if Peptide X blocked MAdCAM binding to α4β7 integrin by a simple competitive mechanism. […] Based on the dose-response shifts, global-fit Schild analysis was used to determine the Schild slope and equilibrium dissociation constant (KB). The slope was ˜1, which indicated the inhibition is orthosteric antagonism with respect to MAdCAM, and not allosteric antagonism. […] The estimated KB value was 1 nM, which was similar to other Peptide X potency values in different assays.

α4β7 receptor = experiment: 7 day oral study, FACS receptor occupancy, α4β7 expression and circulating T cells; type: in vivo, cynomolgus monkey
Experimental: In certain embodiments for FACS analysis, heparinized whole blood from animals *e.g., cyanos) is stained with each of two panels of antibodies to evaluate (1) the extent of α4β7 receptor occupancy in samples treated with a peptide dimer compound or peptide monomer compound described herein; and (2) the abundance of circulating α4β7+, αEβ7+, and α4β7+αEβ7+ lymphocyte subsets. Receptor occupancy and integrin expression are assessed within memory CD4 T cells, naïve CD4 T cells, and B cells. To evaluate receptor occupancy, whole blood samples are first treated with 1 mM MnCl2 to allow peptide binding, and then pre-incubated+/−1 uM unlabeled peptide to fully occupy (i.e., block) the α4β7 receptor. Blocked and unblocked samples were stained with 1 nM Alexa 647-labeled peptide, followed by staining with antibodies against α4β7, CD45, CD4, CD45RA, and CD19. Samples are processed to lyse erythrocytes and fix leukocytes, followed by staining with a second-step reagent (streptavidin-BV421) and wash steps. To assess integrin expression and cell subset abundance, whole blood samples are stained with antibodies against α4, β7, and αE, in addition to antibodies against CD45, CD4, CD45RA, and CD19. Samples are processed to lyse erythrocytes and fix leukocytes, followed by staining with a second-step reagent (streptavidin-BV421) and wash steps. The stained samples are analyzed by flow cytometry, collecting a constant sample volume to allow calculation of absolute cell counts.
To further evaluate the in vivo properties of Peptide X in a higher species, cynomolgus monkeys were dosed with Peptide X for 7 days. Dosing was oral (nasogastric intubation) once daily. Whole blood (about 3.5 mL) was collected on Day 0 (prior to dosing) and Day 6 (1 hour post the last dose) for PK and PD analysis. On Day 6, blood was also collected from a non-dosed animal. For PD, FACS analysis was used to measure receptor occupancy, down-regulation of α4β7 expression and circulating levels of T cells expressing the integrin α4β7.
For FACS analysis, heparinized whole blood from the cynos was stained with each of two panels of antibodies to evaluate (1) the extent of α4β7 receptor occupancy in Peptide X-treated samples and (2) the abundance of circulating α4β7+, αEβ7+, and α4β7+αEβ7+ lymphocyte subsets. Receptor occupancy and integrin expression were assessed within memory CD4 T cells, naïve CD4 T cells, and B cells. To evaluate receptor occupancy, whole blood samples were first treated with 1 mM MnCl2 to allow Peptide X binding, and then pre-incubated+/−1 uM unlabeled Peptide X to fully occupy (i.e., block) the α4β7 receptor. […] All stained samples were analyzed by flow cytometry, collecting a constant sample volume to allow calculation of absolute cell counts.

Sequence of α4β7 integrin (P13612 34-977 limits assumed): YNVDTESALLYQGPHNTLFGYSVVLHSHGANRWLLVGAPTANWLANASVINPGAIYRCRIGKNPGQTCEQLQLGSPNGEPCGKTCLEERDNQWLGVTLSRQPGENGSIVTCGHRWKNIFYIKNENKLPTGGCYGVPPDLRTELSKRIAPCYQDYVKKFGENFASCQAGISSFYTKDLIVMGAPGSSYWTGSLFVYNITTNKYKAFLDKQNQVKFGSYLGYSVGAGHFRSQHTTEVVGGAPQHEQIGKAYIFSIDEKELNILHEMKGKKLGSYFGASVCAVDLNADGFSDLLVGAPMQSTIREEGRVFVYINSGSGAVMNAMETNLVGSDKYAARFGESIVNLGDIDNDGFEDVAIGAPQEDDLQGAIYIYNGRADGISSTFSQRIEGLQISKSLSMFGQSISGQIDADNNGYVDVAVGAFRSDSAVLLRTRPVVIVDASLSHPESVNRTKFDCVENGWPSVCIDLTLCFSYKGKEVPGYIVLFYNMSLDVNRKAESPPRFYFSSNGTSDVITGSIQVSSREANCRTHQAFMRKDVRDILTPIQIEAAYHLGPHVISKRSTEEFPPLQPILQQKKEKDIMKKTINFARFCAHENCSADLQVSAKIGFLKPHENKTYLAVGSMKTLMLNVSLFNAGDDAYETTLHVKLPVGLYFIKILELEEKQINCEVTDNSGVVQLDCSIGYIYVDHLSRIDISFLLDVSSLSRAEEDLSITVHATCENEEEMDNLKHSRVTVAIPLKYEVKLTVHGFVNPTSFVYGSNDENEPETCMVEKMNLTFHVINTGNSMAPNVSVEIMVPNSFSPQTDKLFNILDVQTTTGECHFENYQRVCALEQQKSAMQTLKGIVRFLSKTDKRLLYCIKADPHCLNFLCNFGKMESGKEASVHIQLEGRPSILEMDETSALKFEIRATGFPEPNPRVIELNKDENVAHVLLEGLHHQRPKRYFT
Sequence of α4β7 integrin (P26010 20-723 limits assumed): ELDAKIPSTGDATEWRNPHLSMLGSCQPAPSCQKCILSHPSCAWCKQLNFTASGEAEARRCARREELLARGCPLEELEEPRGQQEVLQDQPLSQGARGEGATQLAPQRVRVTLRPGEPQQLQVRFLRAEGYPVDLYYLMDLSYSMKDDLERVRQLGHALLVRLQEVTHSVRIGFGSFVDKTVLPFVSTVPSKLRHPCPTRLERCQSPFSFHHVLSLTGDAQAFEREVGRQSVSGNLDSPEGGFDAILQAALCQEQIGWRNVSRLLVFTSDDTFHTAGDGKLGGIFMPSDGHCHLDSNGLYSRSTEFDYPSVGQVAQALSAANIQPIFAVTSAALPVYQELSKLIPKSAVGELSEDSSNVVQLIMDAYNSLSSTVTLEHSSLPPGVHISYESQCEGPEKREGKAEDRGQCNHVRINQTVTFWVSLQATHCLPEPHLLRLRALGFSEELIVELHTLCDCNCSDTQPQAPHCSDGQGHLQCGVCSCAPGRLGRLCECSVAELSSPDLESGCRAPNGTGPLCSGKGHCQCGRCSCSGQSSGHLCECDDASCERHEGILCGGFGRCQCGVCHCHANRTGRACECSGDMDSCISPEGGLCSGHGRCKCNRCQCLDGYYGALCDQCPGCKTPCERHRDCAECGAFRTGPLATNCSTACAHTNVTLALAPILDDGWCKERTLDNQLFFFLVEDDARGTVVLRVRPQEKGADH
Sequence of α4β1 (P13612 34-1032): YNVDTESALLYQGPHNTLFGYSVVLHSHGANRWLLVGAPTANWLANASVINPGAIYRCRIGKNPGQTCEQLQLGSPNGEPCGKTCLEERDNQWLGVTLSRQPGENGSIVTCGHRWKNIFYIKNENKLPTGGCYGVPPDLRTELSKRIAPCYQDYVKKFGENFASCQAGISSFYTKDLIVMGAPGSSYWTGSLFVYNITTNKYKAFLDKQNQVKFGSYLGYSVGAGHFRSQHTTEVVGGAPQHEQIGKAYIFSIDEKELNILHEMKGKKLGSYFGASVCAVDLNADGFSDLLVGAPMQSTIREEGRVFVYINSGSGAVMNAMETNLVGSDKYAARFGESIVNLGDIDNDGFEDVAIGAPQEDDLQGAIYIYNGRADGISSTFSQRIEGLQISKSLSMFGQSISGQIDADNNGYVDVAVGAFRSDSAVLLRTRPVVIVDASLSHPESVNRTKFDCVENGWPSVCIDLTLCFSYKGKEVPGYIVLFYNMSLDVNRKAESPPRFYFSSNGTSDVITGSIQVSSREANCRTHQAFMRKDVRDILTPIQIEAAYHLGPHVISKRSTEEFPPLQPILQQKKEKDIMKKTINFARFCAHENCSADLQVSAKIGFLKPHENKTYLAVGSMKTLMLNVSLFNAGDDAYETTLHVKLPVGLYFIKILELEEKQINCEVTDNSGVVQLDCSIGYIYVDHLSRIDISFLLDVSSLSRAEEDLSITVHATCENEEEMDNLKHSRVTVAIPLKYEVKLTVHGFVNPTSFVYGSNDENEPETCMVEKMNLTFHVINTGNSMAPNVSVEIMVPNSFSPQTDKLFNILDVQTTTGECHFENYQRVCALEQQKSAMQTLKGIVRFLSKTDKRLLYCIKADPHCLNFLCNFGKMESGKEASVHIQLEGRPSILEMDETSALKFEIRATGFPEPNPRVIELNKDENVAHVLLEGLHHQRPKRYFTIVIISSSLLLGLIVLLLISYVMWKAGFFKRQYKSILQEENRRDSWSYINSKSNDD
Sequence of α4β1 (P05556 21-798): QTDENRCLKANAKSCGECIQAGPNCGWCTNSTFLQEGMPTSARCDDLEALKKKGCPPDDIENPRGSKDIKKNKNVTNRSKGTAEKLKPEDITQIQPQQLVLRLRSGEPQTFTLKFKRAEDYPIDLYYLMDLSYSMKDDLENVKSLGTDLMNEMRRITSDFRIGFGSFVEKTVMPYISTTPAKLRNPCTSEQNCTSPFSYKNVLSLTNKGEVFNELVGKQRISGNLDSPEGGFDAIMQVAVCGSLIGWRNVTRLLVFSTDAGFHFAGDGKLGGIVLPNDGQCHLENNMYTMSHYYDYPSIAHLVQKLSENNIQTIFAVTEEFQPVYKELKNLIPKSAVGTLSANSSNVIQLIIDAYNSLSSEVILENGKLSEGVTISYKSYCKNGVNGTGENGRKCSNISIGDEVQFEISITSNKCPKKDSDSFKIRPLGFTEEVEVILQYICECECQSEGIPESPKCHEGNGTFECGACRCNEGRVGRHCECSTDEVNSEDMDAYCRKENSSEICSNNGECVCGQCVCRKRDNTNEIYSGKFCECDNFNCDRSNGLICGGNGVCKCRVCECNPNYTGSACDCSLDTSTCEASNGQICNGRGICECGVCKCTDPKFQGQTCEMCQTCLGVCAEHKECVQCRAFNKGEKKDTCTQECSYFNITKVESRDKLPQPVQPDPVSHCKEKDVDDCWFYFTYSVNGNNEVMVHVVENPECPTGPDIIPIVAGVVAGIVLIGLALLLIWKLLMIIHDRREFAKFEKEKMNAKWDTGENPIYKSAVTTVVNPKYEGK

Compound: CC(=O)N[C@@H]1C(=O)N(C)[C@@H](CCCNC(=N)N)C(=O)N[C@@H](CO)C(=O)N[C@@H](CC(=O)O)C(=O)N[C@@H](C(C)O)C(=O)N[C@@H](CC(C)C)C(=O)N[C@H](C(=O)N[C@@H](Cc2ccc(C(C)(C)C)cc2)C(=O)N[C@@H](CCC(=O)O)CC(=O)N[C@H](CCCCNC(=O)COCC(=O)NCCCC[C@@H](NC(=O)C[C@H](CCC(=O)O)NC(=O)[C@H](Cc2ccc(C(C)(C)C)cc2)NC(=O)[C@H]2NC(=O)[C@H](CC(C)C)NC(=O)[C@H](C(C)O)NC(=O)[C@H](CC(=O)O)NC(=O)[C@H](CO)NC(=O)[C@H](CCCNC(=N)N)N(C)C(=O)[C@@H](NC(C)=O)C(C)(C)SSC2(C)C)C(N)=O)C(N)=O)C(C)(C)SSC1(C)C (stereo partly drawn) [Peptide X, [Ac-Pen-(N-Me-Arg)-Ser-Asp-Thr-Leu-Pen-(Phe(4-tBu))-(β-homoGlu)-(D-Lys)]2-DIG] (I: Ac-[Pen][NMeR]SD[Thr(3ξ)]L[Pen][Phe(4-tBu)][β3hE][dK]-NH2 / II: Ac-[Pen][NMeR]SD[Thr(3ξ)]L[Pen][Phe(4-tBu)][β3hE][dK]-NH2; disulfide I:1-I:7, II:1-II:7; linker I:10-II:10 via Diglycolyl)
- IC50 (α4β1): > 100000 nM
- Schild slope (α4β7 integrin): ~1
- Kb (α4β7 integrin; estimated, read-out: equilibrium dissociation constant (KB)): 1 nM
- α4β7 expression on CD4 memory T cells (α4β7 receptor; all doses, Day 6 vs Day 0): decreased at all doses
- EC50 (α4β7 receptor; by extrapolation, estimated, read-out: plasma concentration sufficient to occupy 50% of the α4β7 receptors in the blood): ~0.35 nM
- percentage of α4β7+ memory T cells normalized to total CD4 cells (α4β7 receptor; cyno blood): increase
- percent receptor occupancy in blood (α4β7 receptor; highest dose (75 mg/kg/day), oral once daily 7 days, CD4 memory α4β7+ T cells): exceeded 90%
